Reference: ChEMBL document CHEMBL1201862, “PubChem BioAssay data set” (2004)
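A five-concentration, 48-hour dose response in 96-well plates underlies each endpoint, interpolated linearly between surrounding concentrations. At the GI50, growth is halved.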 The source made the active and inactive calls. Rule as the data show it: active = GI50 up to about 1.1 µM and inactive = higher.

Assays:
Assay in all cases: NCI tumour cell line growth inhibition, 48 h
OVCAR-8 = system: OVCAR-8
SF-295 = system: SF-295
SW-620 = system: SW-620
LOX IMVI = system: LOX IMVI
RXF 393 = system: RXF 393
HCT-15 = system: HCT-15
SK-OV-3 = system: SK-OV-3
MDA-N = system: MDA-N
LXFL 529 = system: LXFL 529
EKVX = system: EKVX
RPMI-8226 = system: RPMI-8226
PC-3 = system: PC-3
M19-MEL = system: M19-MEL
SK-MEL-28 = system: SK-MEL-28
KM12 = system: KM12
M14 = system: M14
NCI-H23 = system: NCI-H23
TK-10 = system: TK-10
SK-MEL-5 = system: SK-MEL-5
SK-MEL-2 = system: SK-MEL-2
XF498 = system: XF498
BT-549 = system: BT-549
HT-29 = system: HT-29
SN12C = system: SN12C
SR = system: SR
DLD-1 = system: DLD-1
Hs-578T = system: Hs-578T
NCI/ADR-RES = system: NCI/ADR-RES
COLO 205 = system: COLO 205
CAKI-1 = system: CAKI-1
SNB-78 = system: SNB-78
OVCAR-5 = system: OVCAR-5
786-0 = system: 786-0
HL-60 = system: HL-60
NCI-H522 = system: NCI-H522
T47D = system: T47D
IGROV-1 = system: IGROV-1
MOLT-4 = system: MOLT-4
UO-31 = system: UO-31
CCRF-CEM = system: CCRF-CEM
HCT-116 = system: HCT-116
OVCAR-3 = system: OVCAR-3
HOP-18 = system: HOP-18
DMS-273 = system: DMS-273
DU-145 = system: DU-145
HOP-62 = system: HOP-62
U-251 = system: U-251
A498 = system: A498
ACHN = system: ACHN
SNB-75 = system: SNB-75
SF-539 = system: SF-539
SNB-19 = system: SNB-19
SF-268 = system: SF-268
HCC 2998 = system: HCC 2998
HOP-92 = system: HOP-92
UACC-62 = system: UACC-62
Malme-3M = system: Malme-3M
NCI-H460 = system: NCI-H460
MDA-MB-435 = system: MDA-MB-435
MCF7 = system: MCF7
A549 = system: A549
MDA-MB-231 = system: MDA-MB-231
KM-20L2 = system: KM-20L2
RXF 631 = system: RXF 631
NCI-H226 = system: NCI-H226
UACC-257 = system: UACC-257
DMS-114 = system: DMS-114
OVCAR-4 = system: OVCAR-4
K562 = system: K562

Compound: CCCCCCCCCCC(O)C1CCC(C(O)CCC(O)C2CCC(CCCCCCC[C@H](O)CC3=C[C@@H](C)OC3=O)O2)O1 (some centres undefined)
- GI50 (OVCAR-8): 10.2 µM (inactive)
- GI50 (SF-295): 0.01 µM (active)
- GI50 (SW-620): > 51.4 µM (inactive)
- GI50 (LOX IMVI): 14.6 µM (inactive)
- GI50 (RXF 393): 5.81 µM (inactive)
- GI50 (HCT-15): > 53.1 µM
- GI50 (SK-OV-3): 30.3 µM (inactive)
- GI50 (MDA-N): > 10 µM (inactive)
- GI50 (LXFL 529): 14.6 µM (inactive)
- GI50 (EKVX): 34.8 µM (inactive)
- GI50 (RPMI-8226): 0.855 µM (active)
- GI50 (PC-3): > 10 µM (inactive)
- GI50 (M19-MEL): > 76.4 µM (inactive)
- GI50 (SK-MEL-28): > 51.9 µM (inactive)
- GI50 (KM12): 6.1 µM (inactive)
- GI50 (M14): > 100 µM (inactive)
- GI50 (NCI-H23): 0.01 µM (active)
- GI50 (TK-10): 30.3 µM (inactive)
- GI50 (SK-MEL-5): 0.01 µM (active)
- GI50 (SK-MEL-2): > 100 µM (inactive)
- GI50 (XF498): 28.2 µM (inactive)
- GI50 (BT-549): 0.001 µM (active)
- GI50 (HT-29): > 100 µM (inactive)
- GI50 (SN12C): > 48.9 µM (inactive)
- GI50 (SR): 0.01 µM (active)
- GI50 (DLD-1): 54.8 µM (inactive)
- GI50 (Hs-578T): > 10 µM (inactive)
- GI50 (NCI/ADR-RES): 0.957 µM (active)
- GI50 (COLO 205): > 100 µM (inactive)
- GI50 (CAKI-1): > 70.8 µM (inactive)
- GI50 (SNB-78): 14.9 µM (inactive)
- GI50 (OVCAR-5): > 100 µM (inactive)
- GI50 (786-0): 17.3 µM (inactive)
- GI50 (HL-60): 0.01 µM (active)
- GI50 (NCI-H522): 1.34 µM (inactive)
- GI50 (T47D): > 10 µM (inactive)
- GI50 (IGROV-1): 31.5 µM (inactive)
- GI50 (MOLT-4): 2.02 µM (inactive)
- GI50 (UO-31): 2.25 µM (inactive)
- GI50 (CCRF-CEM): 3.48 µM (inactive)
- GI50 (HCT-116): < 0.033 µM (active)
- GI50 (OVCAR-3): 18.3 µM (inactive)
- GI50 (HOP-18): > 100 µM (inactive)
- GI50 (DMS-273): 41.6 µM (inactive)
- GI50 (DU-145): > 10 µM (inactive)
- GI50 (HOP-62): > 40.6 µM (inactive)
- GI50 (U-251): 10.2 µM (inactive)
- GI50 (A498): 22.2 µM (inactive)
- GI50 (ACHN): 1.2 µM (inactive)
- GI50 (SNB-75): 6.9 µM (inactive)
- GI50 (SF-539): 26.8 µM (inactive)
- GI50 (SNB-19): 3.66 µM (inactive)
- GI50 (SF-268): 9.23 µM (inactive)
- GI50 (HCC 2998): 97.5 µM (inactive)
- GI50 (HOP-92): 11.6 µM (inactive)
- GI50 (UACC-62): 4.02 µM (inactive)
- GI50 (Malme-3M): 29.6 µM (inactive)
- GI50 (NCI-H460): > 22.9 µM (inactive)
- GI50 (MDA-MB-435): 6.28 µM (inactive)
- GI50 (MCF7): 2 µM (inactive)
- GI50 (A549): 15.1 µM (inactive)
- GI50 (MDA-MB-231): > 10 µM (inactive)
- GI50 (KM-20L2): > 100 µM (inactive)
- GI50 (RXF 631): > 46.2 µM (inactive)
- GI50 (NCI-H226): 2.64 µM (inactive)
- GI50 (UACC-257): < 0.0169 µM (active)

Compound: O=C1NC(=O)C(CCC(=O)c2ccc3ccccc3c2)C(=O)N1
- GI50 (OVCAR-8): > 100 µM (inactive)
- GI50 (SF-295): > 100 µM (inactive)
- GI50 (SW-620): > 100 µM (inactive)
- GI50 (LOX IMVI): > 100 µM (inactive)
- GI50 (RXF 393): > 100 µM (inactive)
- GI50 (HCT-15): > 100 µM
- GI50 (SK-OV-3): > 100 µM (inactive)
- GI50 (LXFL 529): > 100 µM (inactive)
- GI50 (EKVX): > 100 µM (inactive)
- GI50 (M19-MEL): > 100 µM (inactive)
- GI50 (SK-MEL-28): > 100 µM (inactive)
- GI50 (KM12): > 100 µM (inactive)
- GI50 (M14): > 100 µM (inactive)
- GI50 (NCI-H23): > 100 µM (inactive)
- GI50 (TK-10): > 100 µM (inactive)
- GI50 (SK-MEL-5): > 100 µM (inactive)
- GI50 (SK-MEL-2): > 100 µM (inactive)
- GI50 (XF498): > 100 µM (inactive)
- GI50 (HT-29): > 100 µM (inactive)
- GI50 (SN12C): > 100 µM (inactive)
- GI50 (SR): > 100 µM (inactive)
- GI50 (DLD-1): > 100 µM (inactive)
- GI50 (COLO 205): > 100 µM (inactive)
- GI50 (CAKI-1): > 100 µM (inactive)
- GI50 (SNB-78): > 100 µM (inactive)
- GI50 (OVCAR-5): > 100 µM (inactive)
- GI50 (786-0): > 100 µM (inactive)
- GI50 (HL-60): > 100 µM (inactive)
- GI50 (NCI-H522): 20.1 µM (inactive)
- GI50 (IGROV-1): > 100 µM (inactive)
- GI50 (MOLT-4): > 100 µM (inactive)
- GI50 (UO-31): > 100 µM (inactive)
- GI50 (CCRF-CEM): > 100 µM (inactive)
- GI50 (HCT-116): > 100 µM (inactive)
- GI50 (OVCAR-3): > 100 µM (inactive)
- GI50 (HOP-18): > 100 µM (inactive)
- GI50 (DMS-273): > 100 µM (inactive)
- GI50 (HOP-62): > 100 µM (inactive)
- GI50 (U-251): > 100 µM (inactive)
- GI50 (A498): > 100 µM (inactive)
- GI50 (ACHN): > 100 µM (inactive)
- GI50 (SNB-75): > 100 µM (inactive)
- GI50 (SF-539): > 100 µM (inactive)
- GI50 (SNB-19): > 100 µM (inactive)
- GI50 (SF-268): > 100 µM (inactive)
- GI50 (DMS-114): > 100 µM (inactive)
- GI50 (HCC 2998): > 100 µM (inactive)
- GI50 (HOP-92): > 100 µM (inactive)
- GI50 (UACC-62): > 100 µM (inactive)
- GI50 (Malme-3M): > 100 µM (inactive)
- GI50 (NCI-H460): > 100 µM (inactive)
- GI50 (A549): > 100 µM (inactive)
- GI50 (KM-20L2): > 100 µM (inactive)
- GI50 (OVCAR-4): > 100 µM (inactive)
- GI50 (RXF 631): > 100 µM (inactive)
- GI50 (NCI-H226): > 100 µM (inactive)
- GI50 (UACC-257): > 100 µM (inactive)
- GI50 (K562): > 100 µM (inactive)
